Laboratory results published in patent US7109193B2, “Tricyclic diazepines tocolytic oxytocin receptor antagonists” (Wyeth, priority 2001, dated 2006).

Target: T1, human vasopressin V1a receptor subtype (Homo sapiens, UniProt P37288)
T1 construct: host or cells: CHO cells (pZeoSV vector for the Thibonnier line)
Assay: Vasopressin binding in Chinese Hamster Ovary cell membranes expressing human vasopressin V1a subtype receptors
Settings: 100 nM, CHO cell membranes, [3H]Manning ligand, values without parentheses
Method in brief: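 Membranes from CHO cells expressing human V1a receptor were incubated with [3H]Manning ligand (added as 20 μL of 8 nM) in pH 7.4 Tris buffer with MgCl2, BSA and protease inhibitors, 60 min at room temperature. Bound radioactivity was counted after filtration; values are percent inhibition at a stated concentration or IC50.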

T1 sequence (P37288 whole entry): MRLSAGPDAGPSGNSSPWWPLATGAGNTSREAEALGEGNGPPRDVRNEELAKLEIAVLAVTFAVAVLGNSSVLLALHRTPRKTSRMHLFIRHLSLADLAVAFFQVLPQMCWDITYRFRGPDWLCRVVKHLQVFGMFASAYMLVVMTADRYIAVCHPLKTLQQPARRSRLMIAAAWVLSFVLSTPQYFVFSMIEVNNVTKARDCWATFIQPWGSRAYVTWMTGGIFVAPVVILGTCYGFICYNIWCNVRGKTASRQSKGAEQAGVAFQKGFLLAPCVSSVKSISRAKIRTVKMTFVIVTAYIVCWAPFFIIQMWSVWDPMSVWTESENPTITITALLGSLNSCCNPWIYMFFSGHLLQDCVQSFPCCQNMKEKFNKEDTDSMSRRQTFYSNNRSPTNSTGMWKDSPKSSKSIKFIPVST

inhibition at 0.1 µM | V1a % inhibition @ 100 nM (0.1 µM) | SMILES
0% |  | COc1cc(C(=O)N2Cc3ccc(C(=O)N4CCN(C)CC4)n3Cc3ccccc32)ccc1-n1c(C)ccc1C [Example 306, {10-[4-(2,5-Dimethyl-1H-pyrrol-1-yl)-3-methoxybenzoyl]-10,11-dihydro-5H-pyrrolo[2,1-c][1,4]benzodiazepin-3-yl}(4-methyl-1-piperazinyl)methanone]
47% |  | COc1cc(C(=O)N2Cc3ccc(C(=O)n4ccnc4)n3Cc3ccccc32)ccc1-c1ccccc1C [Example 290, 1H-Imidazol-1-yl-{10-[(2-methoxy-2′-methyl[1,1′-biphenyl]-4-yl)carbonyl]-10,11-dihydro-5H-pyrrolo[2,1-c][1,4]benzodiazepin-3-yl}methanone]
40% |  | Cc1ccccc1-c1ccc(C(=O)N2Cc3ccc(C(=O)N4CCCN(C)CC4)n3Cc3ccccc32)cc1 [Example 65, {10-[(2′-Methyl[1,1′-biphenyl]-4-yl)carbonyl]-10,11-dihydro-5H-pyrrolo[2,1-c][1,4]benzodiazepin-3-yl}(4-methyl-1,4-diazepan-1-yl)methanone]
57% |  | Cc1ccccc1-c1ccc(C(=O)N2Cc3ccc(C(=O)N4CCCN(C)CC4)n3Cc3ccccc32)cc1C [Example 63, {10-[(2,2′-Dimethyl[1,1′-biphenyl]-4-yl)carbonyl]-10,11-dihydro-5H-pyrrolo[2,1-c][1,4]benzodiazepin-3-yl}(4-methyl-1,4-diazepan-1-yl)methanone]
62% |  | Cc1ccccc1-c1ccc(C(=O)N2Cc3ccc(C(=O)N4CCN(CCCN(C)C)CC4)n3Cc3ccccc32)cc1C [Example 247, {4-[3-(Dimethylamino)propyl]-1-piperazinyl}{10-[(2,2′-dimethyl[1,1′-biphenyl]-4-yl)carbonyl]-10,11-dihydro-5H-pyrrolo[2,1-c][1,4]benzodiazepin-3-yl}methanone]
-4% |  | COc1cccc(-c2cc(OC)c(C(=O)N3Cc4ccc(C(=O)N5CCCN(C)CC5)n4Cc4ccccc43)cc2Cl)c1 [Example 67, {10-[(6-Chloro-3,3′-dimethoxy[1,1′-biphenyl]-4-yl)carbonyl]-10,11-dihydro-5H-pyrrolo[2,1-c][1,4]benzodiazepin-3-yl}(4-methyl-1,4-diazepan-1-yl)methanone]
38% |  | COc1cc(C(=O)N2Cc3ccc(C(=O)N4CCN(C)CC4)n3Cc3ccccc32)ccc1-c1ccccc1C [Example 53, {10-[(2-Methoxy-2′-methyl[1,1′-biphenyl]-4-yl)carbonyl]-10,11-dihydro-5H-pyrrolo[2,1-c][1,4]benzodiazepin-3-yl}(4-methyl-1-piperazinyl)methanone]
53% |  | COc1cc(C(=O)N2Cc3ccc(C(=O)N4CCN(CCCN(C)C)CC4)n3Cc3ccccc32)ccc1-c1ccccc1C [Example 250, {4-[3-(Dimethylamino)propyl]-1-piperazinyl}{10-[(2-methoxy-2′-methyl[1,1′-biphenyl]-4-yl)carbonyl]-10,11-dihydro-5H-pyrrolo[2,1-c][1,4]benzodiazepin-3-yl}methanone]
2% |  | COc1ccccc1-c1ccc(C(=O)N2Cc3ccc(C(=O)N4CCN(C)CC4)n3Cc3ccccc32)cc1OC [Example 56, {10-[(2,2′-Dimethoxy[1,1′-biphenyl]-4-yl)carbonyl]-10,11-dihydro-5H-pyrrolo[2,1-c][1,4]benzodiazepin-3-yl}(4-methyl-1-piperazinyl)methanone]
-4% |  | COc1cccc(-c2cc(OC)c(C(=O)N3Cc4ccc(C(=O)N5CCN(C)CC5)n4Cc4ccccc43)cc2Cl)c1 [Example 54, {10-[(6-Chloro-3,3′-dimethoxy[1,1′-biphenyl]-4-yl)carbonyl]-10,11-dihydro-5H-pyrrolo[2,1-c][1,4]benzodiazepin-3-yl}(4-methyl-1-piperazinyl)methanone]
 | 10% | Cc1cc(C(=O)N2Cc3ccc(C(=O)N4CCN(CCCN(C)C)CC4)n3Cc3ccccc32)ccc1-c1ccccc1C(F)(F)F [Example 257, {10-[(2-Methyl-2′-trifluoromethyl-[1,1′-biphenyl]-4-yl)carbonyl]-10,11-dihydro-5H-pyrrolo[2,1-c][1,4]benzodiazepin-3-yl}{4-[3-(dimethylamino)propyl]-1-piperazinyl}-methanone]
46% |  | Cc1ccccc1-c1ccc(C(=O)N2Cc3ccc(C(=O)NCCCN(C)C)n3Cc3ccccc32)cc1C [Example 73, N-[3-(Dimethylamino)propyl]-10-[(2,2′-dimethyl[1,1′-biphenyl]-4-yl)carbonyl]-10,11-dihydro-5H-pyrrolo[2,1-c][1,4]benzodiazepine-3-carboxamide]
40% |  | Cc1ccccc1-c1ccc(C(=O)N2Cc3ccc(C(=O)N4CCN(C)CC4)n3Cc3ccccc32)cc1C [Example 50, {10-[(2,2′-Dimethyl[1,1′-biphenyl]-4-yl)carbonyl]-10,11-dihydro-5H-pyrrolo[2,1-c][1,4]benzodiazepin-3-yl}(4-methyl-1-piperazinyl)methanone]
52% |  | COc1cc(C(=O)N2Cc3ccc(C(=O)N4CCCN(C)CC4)n3Cc3ccccc32)ccc1-c1ccccc1C [Example 66, {10-[(2-Methoxy-2′-methyl[1,1′-biphenyl]-4-yl)carbonyl]-10,11-dihydro-5H-pyrrolo[2,1-c][1,4]benzodiazepin-3-yl}(4-methyl-1,4-diazepan-1-yl)methanone]

Further lines, the compound ahead of its results:

SMILES | inhibition at 0.1 µM | V1a % inhibition @ 100 nM (0.1 µM)
COc1cccc(-c2ccc(C(=O)N3Cc4ccc(C(=O)NCCCN(C)C)n4Cc4ccccc43)cc2C)c1 [Example 74, N-[3-(Dimethylamino)propyl]-10-[(3′-methoxy-2-methyl[1,1′-biphenyl]-4-yl)carbonyl]-10,11-dihydro-5H-pyrrolo[2,1-c][1,4]benzodiazepine-3-carboxamide] | 12% | 
COc1ccccc1-c1ccc(C(=O)N2Cc3ccc(C(=O)N[C@@H](Cc4c[nH]cn4)C(N)=O)n3Cc3ccccc32)cc1OC [Example 286, N-[(1S)-2-Amino-1-(1H-imidazol-4-ylmethyl)-2-oxoethyl]-10-[(2,2′-dimethoxy[1,1′-biphenyl]-4-yl)carbonyl]-10,11-dihydro-5H-pyrrolo[2,1-c][1,4]benzodiazepine-3-carboxamide] | 8% | 
COc1cc(-c2ccccc2C)c(Cl)cc1C(=O)N1Cc2ccc(C(=O)N[C@@H](CCCCNC(=O)OC(C)(C)C)C(N)=O)n2Cc2ccccc21 [Example 304, tert-Butyl (5S)-6-amino-5-[({10-[(6-chloro-3-methoxy-2′-methyl[1,1′-biphenyl]-4-yl)carbonyl]-10,11-dihydro-5H-pyrrolo[2,1-c][1,4]benzodiazepin-3-yl}carbonyl)amino]-6-oxohexylcarbamate] | -7% | 
COc1cc(C(=O)N2Cc3ccc(C(=O)n4ccnc4)n3Cc3ccccc32)ccc1-c1cccc2ccccc12 [Example 291, 1H-Imidazol-1-yl-{10-[3-methoxy-4-(1-naphthyl)benzoyl]-10,11-dihydro-5H-pyrrolo[2,1-c][1,4]benzodiazepin-3-yl}methanone] | 2% | 
COc1cc(C(=O)N2Cc3ccc(C(=O)NCCCn4ccnc4)n3Cc3ccccc32)ccc1-n1c(C)ccc1C [Example 312, 10-[4-(2,5-Dimethyl-1H-pyrrol-1-yl)-3-methoxybenzoyl]-N-[3-(1H-imidazol-1-yl)propyl]-10,11-dihydro-5H-pyrrolo[2,1-c][1,4]benzodiazepine-3-carboxamide] | 7% | 
COc1cc(C(=O)N2Cc3ccc(C(=O)NCCCN(C)C)n3Cc3ccccc32)ccc1-n1c(C)ccc1C [Example 308, N-[3-(Dimethylamino)propyl]-10-[4-(2,5-dimethyl-1H-pyrrol-1-yl)-3-methoxybenzoyl]-10,11-dihydro-5H-pyrrolo[2,1-c][1,4]benzodiazepine-3-carboxamide] | -12% | 
CCOc1ccccc1-c1cc(OC)c(C(=O)N2Cc3cccn3Cc3ccccc32)cc1Cl [Example 17, 10-{[6-Chloro-3-methoxy-2′-ethoxy[1,1′-biphenyl]-4-yl]carbonyl}-10,11-dihydro-5H-pyrrolo[2,1-c][1,4]benzodiazepine] | -11% | 
COc1ccccc1-c1ccc(C(=O)N2Cc3ccc(C(=O)N[C@@H]4CN5CCC4CC5)n3Cc3ccccc32)cc1OC [Example 300, N-[(3S)-1-Azabicyclo[2.2.2]oct-3-yl]-10-[(2,2′-dimethoxy[1,1′-biphenyl]-4-yl)carbonyl]-10,11-dihydro-5H-pyrrolo[2,1-c][1,4]benzodiazepine-3-carboxamide] | -2% | 
COc1ccccc1-c1ccc(C(=O)N2Cc3ccc(C(=O)N[C@@H]4CN5CCC4CC5)n3Cc3ccccc32)cc1C [Example 295, N-[(3S)-1-Azabicyclo[2.2.2]oct-3-yl]-10-[(2′-methoxy-2-methyl[1,1′-biphenyl]-4-yl)carbonyl]-10,11-dihydro-5H-pyrrolo[2,1-c][1,4]benzodiazepine-3-carboxamide] | 6% | 
Cc1cc(C(=O)N2Cc3cccn3Cc3ccccc32)ccc1-c1ccncc1 [Example 31, [3-Methyl-4-(4-pyridinyl)phenyl]-[10,11-dihydro-5H-pyrrolo[2,1-c][1,4]benzodiazepin-10-yl]methanone] | 30% | 
Cc1cc(C(=O)N2Cc3ccc(C(=O)N[C@@H](Cc4c[nH]cn4)C(N)=O)n3Cc3ccccc32)ccc1-c1ccccc1C(F)(F)F [Example 284, N-[(1S)-2-Amino-1-(1H-imidazol-4-ylmethyl)-2-oxoethyl]-10-{[2-methyl-2′-(trifluoromethyl)[1,1′-biphenyl]-4-yl]carbonyl}-10,11-dihydro-5H-pyrrolo[2,1-c][1,4]benzodiazepine-3-carboxamide] | 0% | 
COc1cccc(-c2cc(OC)c(C(=O)N3Cc4ccc(C(=O)N[C@@H](CCCCNC(=O)OC(C)(C)C)C(N)=O)n4Cc4ccccc43)cc2Cl)c1 [Example 302, tert-Butyl (5S)-6-amino-5-[({10-[(6-chloro-3,3′-dimethoxy[1,1′-biphenyl]-4-yl)carbonyl]-10,11-dihydro-5H-pyrrolo[2,1-c][1,4]benzodiazepin-3-yl}carbonyl)amino]-6-oxohexylcarbamate] | -15% | 
